Laboratory results reported in US20090087389A1, “DEHYDROEPIAN[…] DIHYDRATE INHALATION COMPOSITIONS AND METHODS” ([…] PHARMACEUTICALS, LLC., priority 2002, published 2009).

How the values were obtained:
[1] = Stability at 50° C. with and without lactose (DHEA formation by HPLC); format: physicochemical; details: 1 week at 50° C.
From the text: These conditions were used to stress the formulation in order to predict its long-term stability results.
The primary degradant is dehydroepiandrosterone or DHEA. […] The materials on accelerated storage become more cohesive with time as evidenced by clumping during sample weighing for chemical analysis. […] This is a considerable disadvantage since lactose is the most commonly used inhalation excipient for dry powder formulations. Continuing with the virtually anhydrous form would mean limiting formulations to neat powder or undertaking more comprehensive safety studies to use a novel excipient.

[2] = solid state; cited from earlier work
[3] = Nebulizer studies (Pari ProNeb Ultra / LC Plus, AS-6 impactor, by-pass collector); details: 0.12% NaCl; no precipitate during nebulization
Protocol: Nebulizer Studies. […] The nebulizer is filled with 5 mL of solution and nebulization is continued until the output became visually insignificant (4½ to 5 min.). Nebulizer solutions are tested using a California Instruments AS-6 6-stage impactor with a USP throat. The impactor is run at 30 L/min for 8 seconds to collect a sample following one minute of nebulization time. At all other times during the experiment, the aerosol is drawn through the by-pass collector at approximately 33 L/min. The collection apparatus, nebulizer, and impactor are rinsed with mobile phase and assayed by HPLC. […] This volume is selected as the practical upper limit for use in a clinical study.

## CC12CCC3C(CC=C4CC(OS(=O)(=O)[O-])CCC43C)C1CCC2=O.[Na+] (stereo not drawn) [DHEA-S dihydrate, dehydroepiandrosterone sodium sulfate dihydrate]
[1]
  color after storage: no change in color

## C[C@]12CC[C@H](OS(=O)(=O)[O-])CC1=CC[C@@H]1[C@@H]2CC[C@]2(C)C(=O)CC[C@@H]12.[Na+] [Anhydrous DHEA-S]
[2]
  hygroscopicity: very hygroscopic

## C[C@]12CC[C@H](OS(=O)(=O)[O-])CC1=CC[C@@H]1[C@@H]2CC[C@]2(C)C(=O)CC[C@@H]12.[Na+] [DHEA-S, sodium dehydroepiandrostenone sulfate]
[3]
  highest solution concentration for a proof of concept clinical trial formulation: approximately 7.5 mg/mL
